Assay results reported in patent US20160114000A1 (Merck Sharp & Dohme, published 2016).
*1 amine or outer side, *2 acyl side, *3 side chain or, on linkers, in order; H or OH if unused. Where a SMILES comes first, the peptide text is derived from it. Side-chain parts run from the residue outwards. [ ]: non-standard residue; d: D form. The star is where a group is joined. Phe(4-CH2NH2) = NCc1ccc(C[C@H](N)C(=O)O)cc1; γGlu = O=C(O)[C@H](CCC(=O)[*:2])N[*:1]; Palmitoyl = CCCCCCCCCCCCCCCC(=O)*

How the values were obtained:
human GLP-1R = target: T1, human GLP-1R (Homo sapiens, UniProt P43220); assay: cAMP protocol, cells expressing human GLP-1R; assay type: cell-based; details: cAMP production, 20% human serum in assay buffer; read-out: GLPR1 EC50 (nM) human
T1 construct: expressed in transfected cells; grown under Geneticin and Hygromycin selection
Description: The cAMP protocol was as follows.
(§1) Peptides were dissolved in 100% DMSO and serially diluted to generate 11 point titrations. The peptide solutions were then transferred into 384-well assay plates (150 nL/well). Assay ready frozen cells expressing human GLP-1R or human GCGR were suspended in growth media consisting of DMEM/F12 medium (GIBCO), 10% FBS (GIBCO), lx P/S (GIBCO), 800 μg/mL Geneticin (GIBCO), and 300 μg/mL Hygromycin (Invitrogen). Cells were then diluted in assay buffer consisting of PBS (GIBCO), 7.5% BSA (Perkin Elmer), 100 μM RO 20-1724 (Sigma), and 20% human serum (MP Biomedical). The cell suspensions (15 μL) were then added to the assay plates containing the peptide solutions (30,000 cells/well for human GCGR; 20,000 cells/well for GLP1R). The cells were incubated for 1 hour at room temperature in the dark. Production of cAMP was determined using HitHunter™ cAMPXS kits (DiscoverX). ED buffer (20 μL) was then added to each well and the plates were incubated for 1 hour at room temperature in the dark. Subsequently, EA buffer (20 μL) was added to each well, and the plates were incubated for 1-18 hours at room temperature in the dark. Luminescence was measured using an EnVision Multilabel plate reader (Perkin Elmer). EC50 values were calculated using ADA data analyzer software.

human GCGR = target: T2, human GCGR (Homo sapiens, UniProt P47871); assay: cAMP protocol, cells expressing human GCGR; assay type: cell-based; details: for EC50: cAMP production, 20% human serum in assay buffer; for hGCGR/hGLP1R (hTone): ratio of EC50 at human GCGR to EC50 at human GLP1R
T2 construct: expressed in transfected cells; grown under Geneticin and Hygromycin selection
Description: The cAMP protocol was as follows.
as §1

[1] = test system: diet-induced obese (DIO) mice (strain C57Bl6/NTac); assay: Cumulative body weight change (grams) in DIO mice, Example 18; assay type: in vivo; details: day 9; for weight loss: 9 nmol/kg daily
Description: Mice were administered a vehicle control or a dose of a peptide daily for nine days. […] The peptide of SEQ ID NO: 9 was administered at doses of 9 and 25 nmol/kg. Cumulative body weight change (grams) was measured each day of the study except on day 3. Results are shown in FIG. 1 and are expressed as mean±SEM.

[2] = test system: DIO mice (strain C57Bl6/NTac); assay: Body weight change (%) relative to vehicle in DIO mice, second study, Example 19; assay type: in vivo; details: eight days
Description: In addition, the peptide of SEQ ID NO: 8 was administered at 15 nmol/kg, while the peptide of SEQ ID NOs: 10 and 11 were administered at 3 nmol/kg. Body weight was measured daily for eight days and body weight change is expressed as percent relative to vehicle (FIG. 2).

[3] = test system: DIO mice (strain C57Bl6/NTac); assay: Cumulative food intake in DIO mice, Example 20; assay type: in vivo; details: 3 nmol/kg, after 8 days of dosing, vs vehicle
Description: For the studies in Examples 18, 19, 20, and 21, diet induced obesity (DIO) mice (strain C57Bl6/NTac; 20 weeks on a high fat diet, about 47 g) were divided into groups of eight mice per group and the initial average body weight, food intake and basal glucose of each group were matched before peptide administration. Each group of mice was subcutaneously injected daily with a dose of Co-agonist Peptide or vehicle control for 7 to 10 days. The peptides tested in this study were Co-agonist Peptides 1, 2, 3, 4, 5, and 6 (SEQ ID NOs: 6, 7, 8, 9, 10, and 11, respectively) at the doses that varied from 3 nmol/kg to 25 nmol/kg. Body weight, food intake and basal glucose were measured periodically during treatment.

[4] = test system: DIO mice (strain C57Bl6/NTac); assay: Ambient glucose levels in DIO mice, Example 21; assay type: in vivo; details: for changes in ambient glucose: 9 nmol/kg, after 9 days of dosing
Description: In addition to cumulative body weight change, ambient glucose levels of the DIO mice (strain C57Bl6/NTac) were measured periodically throughout the study.

T1 sequence (P43220 24-463): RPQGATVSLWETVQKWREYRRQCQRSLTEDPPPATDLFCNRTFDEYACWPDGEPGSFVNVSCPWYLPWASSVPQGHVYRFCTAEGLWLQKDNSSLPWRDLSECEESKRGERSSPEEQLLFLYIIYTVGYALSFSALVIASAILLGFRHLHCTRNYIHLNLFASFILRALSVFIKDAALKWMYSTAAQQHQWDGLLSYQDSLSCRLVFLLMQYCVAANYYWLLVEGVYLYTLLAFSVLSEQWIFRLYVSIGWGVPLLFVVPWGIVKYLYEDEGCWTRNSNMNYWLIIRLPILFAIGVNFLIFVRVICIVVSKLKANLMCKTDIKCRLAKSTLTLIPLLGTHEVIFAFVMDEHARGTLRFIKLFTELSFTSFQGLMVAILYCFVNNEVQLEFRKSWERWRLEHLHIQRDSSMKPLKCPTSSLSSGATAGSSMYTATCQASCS
T2 sequence (P47871 26-477): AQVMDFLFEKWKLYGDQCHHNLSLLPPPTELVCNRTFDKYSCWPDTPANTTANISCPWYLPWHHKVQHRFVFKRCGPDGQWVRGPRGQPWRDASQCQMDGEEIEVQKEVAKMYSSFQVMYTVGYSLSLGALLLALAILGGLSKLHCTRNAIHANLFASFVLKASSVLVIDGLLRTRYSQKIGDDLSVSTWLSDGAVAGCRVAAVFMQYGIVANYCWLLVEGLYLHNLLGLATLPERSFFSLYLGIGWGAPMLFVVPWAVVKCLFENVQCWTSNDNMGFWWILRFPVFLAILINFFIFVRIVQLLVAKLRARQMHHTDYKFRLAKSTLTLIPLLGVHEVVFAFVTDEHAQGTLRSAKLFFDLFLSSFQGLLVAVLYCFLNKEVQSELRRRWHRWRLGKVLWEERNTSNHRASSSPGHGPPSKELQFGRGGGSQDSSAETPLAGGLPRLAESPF

EC50 (human GLP-1R) [nM] | EC50 (human GCGR) [nM] | hGCGR/hGLP1R (hTone) (human GCGR) | Compound | weight loss [1] | weight loss, percent relative to vehicle ([2]; 3 nmol/kg daily) | food intake [3] | body weight loss ([1]; 25 nmol/kg daily) [grams] | changes in ambient glucose [4] | decrease in ambient glucose compared to vehicle ([4]; 25 nmol/kg, second day of dosing) [mg/dL] | weight loss, percent relative to vehicle ([2]; 9 nmol/kg daily)
0.02 | 0.02 | 1.10 | CCCCCCCCCCCCCCCC(=O)N[C@@H](CCC(=O)N[C@@H](CCC(=O)NCCCC[C@H](NC(=O)[C@H](CC(=O)O)NC(=O)[C@H](CO)NC(=O)[C@@H](NC(=O)[C@H](Cc1ccccc1)NC(=O)[C@@H](NC(=O)CNC(=O)[C@H](CCC(N)=O)NC(=O)[C@@H](CO)NC(=O)[C@@H](N)Cc1c[nH]cn1)[C@@H](C)O)[C@@H](C)O)C(=O)N[C@@H](CO)C(=O)N[C@@H](CCCCN)C(=O)N[C@@H](Cc1ccc(O)cc1)C(=O)N[C@@H](CC(C)C)C(=O)N[C@@H](CC(=O)O)C(=O)N[C@@H](CCC(=O)O)C(=O)N[C@@H](CCCNC(=N)N)C(=O)N[C@@H](C)C(=O)N[C@@H](C)C(=O)N[C@@H](CCC(N)=O)C(=O)N[C@@H](CC(=O)O)C(=O)N[C@@H](Cc1ccccc1)C(=O)N[C@H](C(=O)N[C@@H](CCC(N)=O)C(=O)N[C@@H](Cc1c[nH]c2ccccc12)C(=O)N[C@@H](CC(C)C)C(=O)N[C@@H](CCS(C)(=O)=O)C(=O)N[C@@H](CC(=O)O)C(=O)N[C@H](C(N)=O)[C@@H](C)O)C(C)C)C(=O)O)C(=O)O [SEQ ID NO: 15] | – | – | – | – | – | – | –
0.05 | 0.05 | 0.98 | CCCCCCCCCCCCCCCC(=O)N[C@@H](CCC(=O)N[C@@H](CCC(=O)NCc1ccc(C[C@H](NC(=O)[C@H](CC(=O)O)NC(=O)[C@H](CO)NC(=O)[C@@H](NC(=O)[C@H](Cc2ccccc2)NC(=O)[C@@H](NC(=O)CNC(=O)[C@H](CCC(N)=O)NC(=O)[C@@H](CO)NC(=O)[C@@H](N)Cc2c[nH]cn2)[C@@H](C)O)[C@@H](C)O)C(=O)N[C@@H](CO)C(=O)N[C@@H](CCCCN)C(=O)N[C@@H](Cc2ccc(O)cc2)C(=O)N[C@@H](CC(C)C)C(=O)N[C@@H](CC(=O)O)C(=O)N[C@@H](C)C(=O)N[C@@H](CCCNC(=N)N)C(=O)N[C@@H](C)C(=O)N[C@@H](C)C(=O)N[C@@H](CCC(N)=O)C(=O)N[C@@H](CC(=O)O)C(=O)N[C@@H](Cc2ccccc2)C(=O)N[C@H](C(=O)N[C@@H](CCC(N)=O)C(=O)N[C@@H](Cc2c[nH]c3ccccc23)C(=O)N[C@@H](CC(C)C)C(=O)N[C@@H](CC(C)C)C(=O)N[C@@H](CC(=O)O)C(=O)N[C@H](C(N)=O)[C@@H](C)O)C(C)C)cc1)C(=O)O)C(=O)O [SEQ ID NO: 17, His^1-D-Ser^2-Gln-Gly-Thr-Phe-Thr-Ser-Asp-pAF^10(γGlu-γGlu-C16)-Ser-Lys-Tyr-Leu-Asp^15-Ala^16-Arg-Ala-Ala-Gln-Asp-Phe^22-Val^23-Gln-Trp^25-Leu-Leu-Asp-Thr-CONH2] (H-H[dS]QGTFTSD[Phe(4-CH2NH2)]([γGlu-γGlu-Palmitoyl])SKYLDARAAQDFVQWLLDT-NH2) | – | – | – | – | – | – | –
– | – | 0.90 | CCCCCCCCCCCCCCCC(=O)N[C@@H](CCC(=O)N[C@@H](CCC(=O)NCCCC[C@H](NC(=O)[C@H](CC(=O)O)NC(=O)[C@H](CO)NC(=O)[C@@H](NC(=O)[C@H](Cc1ccccc1)NC(=O)[C@@H](NC(=O)CNC(=O)[C@H](CCC(N)=O)NC(=O)[C@@H](CO)NC(=O)[C@@H](N)Cc1c[nH]cn1)[C@@H](C)O)[C@@H](C)O)C(=O)N[C@@H](CO)C(=O)N[C@@H](CCCCN)C(=O)N[C@@H](Cc1ccc(O)cc1)C(=O)N[C@@H](CC(C)C)C(=O)N[C@@H](CC(=O)O)C(=O)N[C@@H](C)C(=O)N[C@@H](CCCNC(=N)N)C(=O)N[C@@H](C)C(=O)N[C@@H](C)C(=O)N[C@@H](CCC(N)=O)C(=O)N[C@@H](CC(=O)O)C(=O)N[C@@H](Cc1ccccc1)C(=O)N[C@H](C(=O)N[C@@H](CCC(N)=O)C(=O)N[C@@H](Cc1c[nH]c2ccccc12)C(=O)N[C@@H](CC(C)C)C(=O)N[C@@H](CC(C)C)C(=O)N[C@@H](CC(=O)O)C(=O)N[C@H](C(N)=O)[C@@H](C)O)C(C)C)C(=O)O)C(=O)O [SEQ ID NO: 10] | approximately 13 grams | approximately 17% | significant suppression of food intake | – | – | – | –
0.1 | 0.89 | 8.98 | CCCCCCCCCCCCCCCC(=O)N[C@@H](CCC(=O)N[C@@H](CCC(=O)NCCCC[C@H](NC(=O)[C@H](CC(=O)O)NC(=O)[C@H](CO)NC(=O)[C@@H](NC(=O)[C@H](Cc1ccccc1)NC(=O)[C@@H](NC(=O)CNC(=O)[C@@H](NC(=O)C(C)(C)NC(=O)[C@@H](N)Cc1c[nH]cn1)C(C)C)[C@@H](C)O)[C@@H](C)O)C(=O)N[C@@H](CO)C(=O)N[C@@H](CCCCN)C(=O)N[C@@H](Cc1ccc(O)cc1)C(=O)N[C@@H](CC(C)C)C(=O)N[C@@H](CC(=O)O)C(=O)NC(C)(C)C(=O)N[C@@H](CCCNC(=N)N)C(=O)N[C@@H](C)C(=O)N[C@@H](C)C(=O)N[C@@H](CCC(N)=O)C(=O)N[C@@H](CC(=O)O)C(=O)N[C@@H](Cc1ccccc1)C(=O)N[C@H](C(=O)N[C@@H](CCC(N)=O)C(=O)N[C@@H](Cc1c[nH]c2ccccc12)C(=O)N[C@@H](CC(C)C)C(=O)N[C@@H](CCCC)C(=O)N[C@@H](CC(=O)O)C(=O)N[C@H](C(N)=O)[C@@H](C)O)C(C)C)C(=O)O)C(=O)O [SEQ ID NO: 9] | ~3 grams | – | – | 10.5 | did not exhibit significant changes | -75 | approximately 5%
0.16 | 0.041 | 0.30 | CCCCCCCCCCCCCCCC(=O)N[C@@H](CCC(=O)NCCCC[C@H](NC(=O)[C@H](CC(=O)O)NC(=O)[C@H](CO)NC(=O)[C@@H](NC(=O)[C@H](Cc1ccccc1)NC(=O)[C@@H](NC(=O)CNC(=O)[C@H](CCC(N)=O)NC(=O)[C@@H](CO)NC(=O)[C@@H](N)Cc1c[nH]cn1)[C@@H](C)O)[C@@H](C)O)C(=O)N[C@@H](CO)C(=O)N[C@@H](CCCCN)C(=O)N[C@@H](Cc1ccc(O)cc1)C(=O)N[C@@H](CC(C)C)C(=O)N[C@@H](CC(=O)O)C(=O)N[C@H](C(=O)N[C@@H](CCCNC(=N)N)C(=O)N[C@@H](C)C(=O)N[C@@H](C)C(=O)N[C@@H](CCC(N)=O)C(=O)N[C@@H](CC(=O)O)C(=O)N[C@@H](Cc1ccccc1)C(=O)N[C@H](C(=O)N[C@@H](CCC(N)=O)C(=O)N[C@@H](Cc1c[nH]c2ccccc12)C(=O)N[C@@H](CC(C)C)C(=O)N[C@@H](CC(C)C)C(=O)N[C@@H](CC(=O)O)C(=O)N[C@H](C(N)=O)[C@@H](C)O)C(C)C)C(C)C)C(=O)O [SEQ ID NO: 7] (H-H[dS]QGTFTSDK([γGlu-Palmitoyl])SKYLDVRAAQDFVQWLLDT-NH2; N-terminus assumed) | ~3 grams | – | – | – | did not exhibit significant changes | – | approximately 5%

Compound | EC50 (human GLP-1R) [nM] | EC50 (human GCGR) [nM] | hGCGR/hGLP1R (hTone) (human GCGR) | weight loss [1] | weight loss, percent relative to vehicle ([2]; 3 nmol/kg daily) | food intake [3] | body weight loss ([1]; 25 nmol/kg daily) [grams] | changes in ambient glucose [4] | decrease in ambient glucose compared to vehicle ([4]; 25 nmol/kg, second day of dosing) [mg/dL] | weight loss, percent relative to vehicle ([2]; 9 nmol/kg daily)
CCCCCCCCCCCCCCCC(=O)N[C@@H](CCC(=O)N[C@@H](CCC(=O)NCCCC[C@H](NC(=O)[C@H](CC(=O)O)NC(=O)[C@H](CO)NC(=O)[C@@H](NC(=O)[C@H](Cc1ccccc1)NC(=O)[C@@H](NC(=O)CNC(=O)[C@H](CCC(N)=O)NC(=O)[C@@H](CO)NC(=O)[C@@H](N)Cc1c[nH]cn1)[C@@H](C)O)[C@@H](C)O)C(=O)N[C@@H](CO)C(=O)N[C@@H](CCCCN)C(=O)N[C@@H](Cc1ccc(O)cc1)C(=O)N[C@@H](CC(C)C)C(=O)N[C@@H](CC(=O)O)C(=O)N[C@@H](CCC(=O)O)C(=O)N[C@@H](CCCNC(=N)N)C(=O)N[C@@H](C)C(=O)N[C@@H](C)C(=O)N[C@@H](CCC(N)=O)C(=O)N[C@@H](CC(=O)O)C(=O)N[C@@H](Cc1ccccc1)C(=O)N[C@H](C(=O)N[C@@H](CCC(N)=O)C(=O)N[C@@H](Cc1c[nH]c2ccccc12)C(=O)N[C@@H](CC(C)C)C(=O)N[C@@H](CC(C)C)C(=O)N[C@@H](CC(=O)O)C(=O)N[C@H](C(N)=O)[C@@H](C)O)C(C)C)C(=O)O)C(=O)O [SEQ ID NO: 11, reference compound] | – | – | 1.30 | approximately 13 grams | no weight loss efficacy | no change in food intake | – | – | – | –
